Measured values taken from patent US5969017A, “Methods of treating or preventing cardiac arrhythmia” (Merck & Co., Inc., priority 1997, dated 1999).

Test system: other cardiac K+ channels
Experiment: Block of the other cardiac K+ channels (IK1, IKr and IKs, summary)
Type: cell-based, guinea pig
Settings: summary of Table 2
Experimental: D. Measurement of IKs IKr and IK1 in Guinea Pig Ventricular Myocytes.
Guinea pig ventricular myocytes were isolated using a modification of the procedure described by Mitra et al., Am. J. Physiol. 249:H1056-60 (1985). Excised hearts were perfused through the aorta (retrograde fashion) at a rate of 10 ml/min with oxygenated, warmed (37° C.) solutions described below. The heart was initially perfused for 7 minutes with a Tyrode's solution containing, in mM: 132 NaCl, 4 KCl, 1.2 MgCl2, 10 HEPES, 5 glucose, pH=7.2. The heart was then perfused with the same nominally Ca^2+ -free solution containing 150 units/ml Type II collagenase (Worthington) and 0.5 units/ml Type XIV protease (Sigma) for 8 minutes. This perfusate was followed by a Tyrode's solution contianing 0.2 mM CaCl2 (without enzymes) for 5 minutes. The digested ventricles were cut into small pieces and gently shaken until cells were visibly dispersed. The cells were stored at room temperature until use, within 8 hours after isolation.
Microelectrode fabrication:
The suction microelectrode technique described by Giles, W. R. and Shibata, E. F., "Voltage clamp of bull-frog cardiac pacemaker cells: a quantitative analysis of potassium currents", J. Physiol. 368:265-292 (1985) was used to voltage clamp the cells. Microelectrodes were made by using a two stage puller from square bore (1.0 mm o.d.) borosilicate capillary tubing. Pipettes were filled with 0.5 M K gluconate, 25 mM KCl and 5 mM K2 ATP. The electrodes had resistances of 3 to 7 Mohm when filled with this solution. After establishing whole-cell recording mode, negative pressure was maintained on the pipette using a 1 ml gas-tight syringe attached via air tight tubing to the suction port of the microelectrode holder. This minimized dialysis of the cell with the pipette solution.
To record K^+ currents, the cells were bathed in a Ca^2+ -free Tyrode's solution containing […]. […] To record Ca^2+ currents, the cells were bathed in Tyrode's solution containing 1.8 mM Ca^2+ without nisoldipine. The cell chamber was superfused with solutions at a rate of 1-2 ml/minute, while maintaining the temperture at […]. A List EPC-7 clamp amplifier was used to voltage clamp the isolated cells. Series resistance was compensated 40-70%, and current was low-pass filtered at a cut-off frequency of 1 kHz. […] Data was analyzed as % block from control membrane currents.
Nisoldipine was prepared as a 4 mM stock solution in polyethylne glycol 200. […] At the final concentrations used, neither polyethylene glycol 200 nor dimethyl sulfoxide had any effect on any of the measured membrane currents.
Selectivity for block of cardiac K^+ channels, IK1, IKr, and IKs was determined as previously described in guinea pig ventricular myocytes (U.S. Pat. No. 5,428,031).

CC1CCC(C(C)C)C(P(=O)(c2ccccc2)c2ccccc2)C1 (stereo not shown) [A, (2-Isopropyl-5-methylcyclohexyl)diphenylphosphine oxide]
blockade of the other cardiac K+ channels (in words): minimal or absent

COc1ccc(-n2nc(Sc3ccc(C)cc3)c(C)c(C#N)c2=O)cc1 [D]
blockade of the other cardiac K+ channels (in words): minimal or absent

Cc1cc(C)c(CP(=O)(c2ccccc2)c2ccccc2)c(-c2ccc(F)c(C)c2)c1 [B, 2-(Diphenylphosphinylmethyl)-4'-fluoro-3,5,3'-trimethyl-biphenyl]
blockade of the other cardiac K+ channels (in words): minimal or absent

COc1ccc(-n2nc(Sc3ccc(Cl)cc3)c(C)c(C#N)c2=O)cc1 [C, 6-(4-Chlorophenylthio)-2-(4-methoxyphenyl)-5-methyl-3-oxo-2,3-dihydropyridazine-4-carbonitrile]
blockade of the other cardiac K+ channels (in words): minimal or absent
